In ChEMBL document CHEMBL5150032, “Sunitinib-based Proteolysis Targeting Chimeras (PROTACs) reduced the protein levels of FLT-3 and c-KIT in leukemia cell lines” (Bioorg Med Chem Lett, 2022):
Calls of active or inactive are those of the source. No cut-off for these calls is given here. Residues, ends and D or L forms follow the SMILES beside them. *: point of attachment. Cbz = O=C(OCc1ccccc1)*

What was measured:
A498 [1] = experiment: Antiproliferative activity against human A498 cells assessed as inhibition of cell growth incubated for 48 hrs by CCK-8 assay; assay type: functional, cell-based; conditions: A498, 48 h
HL-60 [2] = experiment: Antiproliferative activity against human HL-60 cells assessed as inhibition of cell growth incubated for 48 hrs by CCK-8 assay; assay type: functional, cell-based; conditions: HL-60, 48 h
A498 [3] = experiment: Antiproliferative activity against human A498 cells assessed as reduction in cell viability at 20 uM incubated for 24 hrs by CCK-8 assay; assay type: functional, cell-based
[4] = Cytotoxicity against human NCM460 cells assessed as inhibition of cell growth; assay type: toxicity, cell-based
K562 [5] = experiment: Antiproliferative activity against human K562 cells assessed as reduction in cell viability at 20 uM incubated for 24 hrs by CCK-8 assay; assay type: functional, cell-based
HL-60 [6] = experiment: Antiproliferative activity against human HL-60 cells assessed as reduction in cell viability at 20 uM incubated for 24 hrs by CCK-8 assay; assay type: functional, cell-based
K562 [7] = experiment: Antiproliferative activity against human K562 cells assessed as inhibition of cell growth incubated for 48 hrs by CCK-8 assay; assay type: functional, cell-based; conditions: K562, 48 h
[8] = target: T1, von Hippel-Lindau disease tumor suppressor/Receptor-type tyrosine-protein kinase FLT3 (Homo sapiens) (UniProt P36888+P40337); experiment: PROTAC activity at VHL/FLT-3 in human K562 cells assessed as reduction in FLT-3 protein level at 20 uM incubated for 48 hrs by Western blot analysis; assay type: cell-based
[9] = target: T1, von Hippel-Lindau disease tumor suppressor/Receptor-type tyrosine-protein kinase FLT3 (Homo sapiens); experiment: PROTAC activity at VHL/FLT-3 in human HL-60 cells assessed as reduction in FLT-3 protein level at 1 uM incubated for 1 hrs by Western blot analysis; assay type: cell-based
[10] = target: T1, von Hippel-Lindau disease tumor suppressor/Receptor-type tyrosine-protein kinase FLT3 (Homo sapiens); experiment: PROTAC activity at VHL/FLT-3 in human HL-60 cells assessed as reduction in FLT-3 protein level at 10 uM by Western blot analysis; assay type: cell-based; conditions: time 4-48 hrs, TDE = time-dependent effect
[11] = target: T1, von Hippel-Lindau disease tumor suppressor/Receptor-type tyrosine-protein kinase FLT3 (Homo sapiens); experiment: PROTAC activity at VHL/FLT-3 in human HL-60 cells assessed as reduction in FLT-3 protein level at 20 uM preincubated with MG-132 for 1 hrs followed by compound addition and measured after for 48 hrs by Western blot analysis; assay type: cell-based
[12] = target: T2, von Hippel-Lindau disease tumor suppressor/Mast/stem cell growth factor receptor Kit (Homo sapiens) (UniProt P10721+P40337); experiment: PROTAC activity at VHL/c-KIT in human HL-60 cells assessed as reduction in c-KIT protein level at 20 uM preincubated with VHL032 for 1 hrs followed by compound addition and measured after for 48 hrs by Western blot analysis; assay type: cell-based
[13] = target: T2, von Hippel-Lindau disease tumor suppressor/Mast/stem cell growth factor receptor Kit (Homo sapiens); experiment: PROTAC activity at VHL/c-KIT in human HL-60 cells assessed as reduction in c-KIT protein level at >10 uM measured at 24 to 48 hrs by Western blot analysis; assay type: cell-based; conditions: time 24-48 hrs
[14] = target: T1, von Hippel-Lindau disease tumor suppressor/Receptor-type tyrosine-protein kinase FLT3 (Homo sapiens); experiment: PROTAC activity at VHL/FLT-3 in human HL-60 cells assessed as reduction in FLT-3 protein level at 20 uM incubated for 24 hrs by Western blot analysis; assay type: cell-based
[15] = target: T1, von Hippel-Lindau disease tumor suppressor/Receptor-type tyrosine-protein kinase FLT3 (Homo sapiens); experiment: PROTAC activity at VHL/FLT-3 in human HL-60 cells assessed as reduction in FLT-3 protein level at 10 uM incubated for 12 hrs by Western blot analysis; assay type: cell-based
[16] = target: T1, von Hippel-Lindau disease tumor suppressor/Receptor-type tyrosine-protein kinase FLT3 (Homo sapiens); experiment: PROTAC activity at VHL/FLT-3 in human HL-60 cells assessed as reduction in FLT-3 protein level at 10 to 20 uM incubated for 48 hrs by Western blot analysis; assay type: cell-based; conditions: dose 10-20 µM

T1 sequence (P36888 27-993 limits assumed): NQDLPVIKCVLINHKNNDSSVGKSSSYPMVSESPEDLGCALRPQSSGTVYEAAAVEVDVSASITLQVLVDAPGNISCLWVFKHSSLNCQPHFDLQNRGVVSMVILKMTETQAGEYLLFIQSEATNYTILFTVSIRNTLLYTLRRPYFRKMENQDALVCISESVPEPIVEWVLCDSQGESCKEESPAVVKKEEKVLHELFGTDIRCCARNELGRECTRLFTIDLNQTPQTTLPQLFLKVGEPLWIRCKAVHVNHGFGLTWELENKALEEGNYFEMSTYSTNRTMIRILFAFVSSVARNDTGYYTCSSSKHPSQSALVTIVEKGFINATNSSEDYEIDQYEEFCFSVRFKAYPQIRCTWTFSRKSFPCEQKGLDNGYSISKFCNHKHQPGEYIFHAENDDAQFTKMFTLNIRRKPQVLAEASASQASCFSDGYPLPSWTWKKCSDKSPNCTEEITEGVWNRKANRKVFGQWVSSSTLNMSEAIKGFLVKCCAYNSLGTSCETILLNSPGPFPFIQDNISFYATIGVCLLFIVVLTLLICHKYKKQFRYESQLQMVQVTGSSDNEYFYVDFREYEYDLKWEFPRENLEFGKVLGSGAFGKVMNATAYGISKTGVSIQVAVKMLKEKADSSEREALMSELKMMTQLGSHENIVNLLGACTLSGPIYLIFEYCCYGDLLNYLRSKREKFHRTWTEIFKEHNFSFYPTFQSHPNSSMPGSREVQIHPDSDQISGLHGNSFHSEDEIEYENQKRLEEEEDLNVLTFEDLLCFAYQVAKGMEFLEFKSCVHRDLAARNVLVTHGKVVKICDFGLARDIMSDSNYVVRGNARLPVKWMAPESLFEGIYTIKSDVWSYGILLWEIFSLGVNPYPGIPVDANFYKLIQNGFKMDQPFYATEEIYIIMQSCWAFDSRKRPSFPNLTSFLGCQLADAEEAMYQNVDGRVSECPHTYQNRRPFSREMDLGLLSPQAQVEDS
T1 sequence (P40337 whole entry partner): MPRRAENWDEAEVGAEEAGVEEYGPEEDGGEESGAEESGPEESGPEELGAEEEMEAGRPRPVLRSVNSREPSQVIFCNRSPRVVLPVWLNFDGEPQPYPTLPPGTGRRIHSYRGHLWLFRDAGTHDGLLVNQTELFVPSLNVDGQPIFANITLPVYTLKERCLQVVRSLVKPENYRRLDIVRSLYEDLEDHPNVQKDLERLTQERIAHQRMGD
T2 sequence (P10721 whole entry, looked up): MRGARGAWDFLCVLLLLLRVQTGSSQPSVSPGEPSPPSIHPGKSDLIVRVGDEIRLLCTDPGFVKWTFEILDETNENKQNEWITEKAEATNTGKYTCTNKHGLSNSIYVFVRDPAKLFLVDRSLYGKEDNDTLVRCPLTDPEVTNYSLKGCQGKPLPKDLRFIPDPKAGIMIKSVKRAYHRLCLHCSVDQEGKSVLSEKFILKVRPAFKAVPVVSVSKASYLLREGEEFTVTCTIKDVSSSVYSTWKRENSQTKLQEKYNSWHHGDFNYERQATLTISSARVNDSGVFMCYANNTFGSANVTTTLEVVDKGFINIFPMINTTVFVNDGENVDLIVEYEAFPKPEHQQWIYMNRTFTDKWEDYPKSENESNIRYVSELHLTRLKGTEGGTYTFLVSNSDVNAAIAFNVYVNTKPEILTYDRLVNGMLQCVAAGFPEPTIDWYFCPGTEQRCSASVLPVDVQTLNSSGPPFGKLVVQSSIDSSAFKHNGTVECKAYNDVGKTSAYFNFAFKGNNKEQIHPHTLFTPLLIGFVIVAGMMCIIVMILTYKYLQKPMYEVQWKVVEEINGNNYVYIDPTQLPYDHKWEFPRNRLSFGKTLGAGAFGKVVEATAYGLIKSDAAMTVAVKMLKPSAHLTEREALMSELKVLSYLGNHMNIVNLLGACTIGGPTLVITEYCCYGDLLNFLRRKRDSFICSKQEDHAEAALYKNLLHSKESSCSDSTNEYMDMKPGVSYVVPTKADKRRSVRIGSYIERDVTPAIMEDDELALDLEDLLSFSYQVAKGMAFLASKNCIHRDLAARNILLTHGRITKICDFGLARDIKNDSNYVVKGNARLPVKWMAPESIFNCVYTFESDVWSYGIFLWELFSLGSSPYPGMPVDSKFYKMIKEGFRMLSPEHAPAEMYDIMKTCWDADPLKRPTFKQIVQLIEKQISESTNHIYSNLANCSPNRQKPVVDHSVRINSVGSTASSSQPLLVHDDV
T2 sequence (P40337 whole entry, looked up): as the sequence (P40337 whole entry partner) above

IC50 (HL-60 [2])	IC50 (K562 [7])	Activity [8]	Activity [9]	Activity [10]	Activity [11]	Activity [12]	Activity [13]	Activity [14]	Activity [15]	Activity [16]	SMILES	IC50 (A498 [1])	Activity (A498 [3])	IC50 [4]	Activity (K562 [5])	Activity (HL-60 [6])
36.5 µM	8.4 µM	Active									CCN(CCNC(=O)c1c(C)[nH]c(/C=C2\C(=O)Nc3ccc(F)cc32)c1C)CC(=O)N[C@H](C(=O)N1C[C@H](O)C[C@H]1C(=O)NCc1ccc(-c2scnc2C)cc1)C(C)(C)C	26.5 µM	Active	> 100 µM	Active	Active
			Active								CC(C)C[C@@H](C=O)NC(=O)[C@H](CC(C)C)NC(=O)[C@H](CC(C)C)NC(=O)OCc1ccccc1 (Cbz-Leu-Leu-Leu-aldehyde)					
12.7 µM	15.2 µM										Cc1ncsc1-c1ccc(CNC(=O)[C@@H]2C[C@@H](O)CN2C(=O)[C@@H](NC(=O)COCCOCCOCCNC(=O)c2c(C)[nH]c(/C=C3\C(=O)Nc4ccc(F)cc43)c2C)C(C)(C)C)cc1	18.1 µM				
8.7 µM	5.8 µM										CCN(CC)CCNC(=O)c1c(C)[nH]c(/C=C2\C(=O)Nc3ccc(F)cc32)c1C [SUNITINIB]	1.2 µM				
2.9 µM	11.6 µM	Active		Tde	Active	Active	Active	Active	Active	Active	Cc1ncsc1-c1ccc(CNC(=O)[C@@H]2C[C@@H](O)CN2C(=O)[C@@H](NC(=O)COCCOCCNC(=O)c2c(C)[nH]c(/C=C3\C(=O)Nc4ccc(F)cc43)c2C)C(C)(C)C)cc1	13.1 µM	Active	> 100 µM	Active	Active
